Measurements taken from US20220288052A1, “COMPOUND FOR COMBINATION TREATMENT” (priority 2019, published 2022).
Where two headings read alike, the source gives them in different places.

Experiments:
NMRI mice = assay: Locomotor activity (mLA); type: in vivo, mouse
Protocol: FIG. 8: The effects of compound (I) on locomotor activity. Compound (I) p.o. in NMRI mice. TSE Motility.
Compound (I) was tested in a classical test often used to measure the ability of a compound to block the reuptake of 5-HT in vivo: nialamide-induced 5-HT syndrome (m5-HT). In addition, compound (I) was tested in a locomotor activity paradigm (mLA) as a measure of its ability to block the reuptake of DA and therefore induce motility. It is generally accepted that >60% DA transporter blockade is needed to induce increased motility in this test.

[1] = Tissue distribution after single dose, mouse; type: in vivo; conditions: po; for AUC(0-t): female, NMRI, mouse 10 mg/kg p.o., read-out: AUC(0-24 h); for half-life: female NMRI mouse 10 mg/kg p.o., read-out: T½ (converted)
Protocol: Compound (I) was dosed to female NMRI mice 10 mg/kg p.o. Plasma was taken 0.5, 1, 2, 4, 6 and 24 post dose. Brain, liver and lung were taken 1, 4 and 24 hours post dose.
AUC and T½ were calculated for plasma and organs, even though the data are very sparse for the organs.

[2] = test system: brain levels of dopamine (DA); assay: In vivo microdialysis, DA; set-up: species or system rat
Protocol: The purpose of the present study was to examine, by in vivo microdialysis technique, the effects after administration of compound (I) on brain levels of serotonin, noradrenalin and dopamine within the ventral hippocampus (Hipp), prefrontal cortex (PFC), striatum (STR) and nucleus accumbens (N.Acc) of anaesthetized rats and mice. Compound (I) represents dual acting serotonin/dopamine reuptake inhibitors and was tested in comparison to citalopram a selective serotonin uptake inhibitor. Compound (I) was tested following subcutaneous injections at dose levels between 0.25-30 mg/kg. […] Pre-treatment with the 5-HT1A autoreceptor antagonist WAY-100635 induced a further minor increase of the compound (I) (0.25 mg/kg) induced increase in the PFC level of 5-HT. […]

5-HT transporter [3] = molecular target: 5-HT transporter (Homo sapiens, UniProt P31645); assay: ^3H-uptake human, 5-HT transporter; type: biochemical
5-HT transporter (Homo sapiens, UniProt P31645), sequence (P31645 whole entry): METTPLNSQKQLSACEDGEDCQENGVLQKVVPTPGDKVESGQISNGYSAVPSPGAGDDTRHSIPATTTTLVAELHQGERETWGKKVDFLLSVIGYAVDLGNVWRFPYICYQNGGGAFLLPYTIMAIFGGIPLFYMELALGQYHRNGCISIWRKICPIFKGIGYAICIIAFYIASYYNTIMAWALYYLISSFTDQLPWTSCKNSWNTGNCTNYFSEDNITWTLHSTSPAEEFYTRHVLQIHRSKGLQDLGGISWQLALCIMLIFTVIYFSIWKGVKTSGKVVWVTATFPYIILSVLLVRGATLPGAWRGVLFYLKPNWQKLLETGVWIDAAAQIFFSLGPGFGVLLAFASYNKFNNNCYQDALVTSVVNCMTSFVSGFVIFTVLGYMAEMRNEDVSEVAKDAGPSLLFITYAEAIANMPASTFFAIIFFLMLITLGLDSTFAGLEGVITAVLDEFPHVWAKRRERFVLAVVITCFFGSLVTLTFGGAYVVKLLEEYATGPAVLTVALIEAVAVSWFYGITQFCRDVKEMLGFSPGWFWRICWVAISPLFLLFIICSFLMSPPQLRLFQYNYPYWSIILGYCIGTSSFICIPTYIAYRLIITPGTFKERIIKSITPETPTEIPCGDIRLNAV
Source text: Compound (I) has been characterized as a monoamine reuptake inhibitor, based on the profile in a series of functional assays (Table 2).

5-HT transporter [4] = molecular target: T1, 5-HT transporter (Mus musculus, UniProt Q60857); assay: Ex vivo 5-HT uptake in mice
T1 construct: from tissue; host or cells: tissue of dosed animals (ex vivo)
T1 sequence (Q60857 whole entry): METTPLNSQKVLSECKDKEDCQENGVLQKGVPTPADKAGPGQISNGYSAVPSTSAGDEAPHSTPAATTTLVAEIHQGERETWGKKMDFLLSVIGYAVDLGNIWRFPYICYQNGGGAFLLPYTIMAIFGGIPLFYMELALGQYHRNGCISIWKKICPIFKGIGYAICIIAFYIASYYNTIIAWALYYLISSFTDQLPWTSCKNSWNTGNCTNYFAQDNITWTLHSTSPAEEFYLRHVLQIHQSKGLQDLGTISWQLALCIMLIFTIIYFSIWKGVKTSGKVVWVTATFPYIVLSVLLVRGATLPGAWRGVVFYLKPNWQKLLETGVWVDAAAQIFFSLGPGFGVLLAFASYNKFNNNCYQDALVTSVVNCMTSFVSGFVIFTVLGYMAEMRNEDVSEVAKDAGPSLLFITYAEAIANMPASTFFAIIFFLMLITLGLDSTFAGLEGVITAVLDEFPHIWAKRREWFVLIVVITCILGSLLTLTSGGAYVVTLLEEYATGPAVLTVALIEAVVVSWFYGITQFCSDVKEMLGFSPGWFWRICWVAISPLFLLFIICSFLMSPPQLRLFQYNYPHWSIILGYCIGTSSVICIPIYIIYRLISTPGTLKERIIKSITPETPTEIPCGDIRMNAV
Protocol: The in vivo receptor occupancy (RO %) of compound (I) was calculated at the MED values (DOSE) in mFST and in the mouse motility test using the formula RO % (estimated)=DOSE 100/(ED50+DOSE). The calculations were based on ED50 values in ex vivo uptake of 5-HT and NA and WIN in vivo binding.

[5] = beagle, dog, in vivo, iv
Protocol: Data presented are mean±s.e. mean where n=4 for all time points, excluding D2t7 where n=3, D3t7 where n=2, and D4t7 and D4t26 where no data was available. Animals received 1, 3, 10, and 30 mg/kg compound (I) as 4 intravenous infusions (starting at t0, D1t30, D2t30 and D3t30, respectively). Each dose was administered over 5 min, using an infusion pump, and the dose volume for each treatment was 2 ml/kg, with the exception of the fourth dose which was 3 ml/kg.
Data presented are mean±s.e. mean where n=4 for all time points, excluding D4t7 and D4t26 where no data was available. Animals received 1, 3, 10, and 30 mg/kg compound (I) as 4 intravenous infusions (starting at t0, D1t30, D2t30 and D3t30, respectively). Each dose was administered over 5 min, using an infusion pump, and the dose volume for each treatment was 2 ml/kg, with the exception of the fourth dose which was 3 ml/kg.

Sigma σ1 = Sigma σ1 (Homo sapiens, UniProt Q99720); assay: MDS LeadProfilingScreen, Sigma σ1; type: binding
Sigma σ1, sequence (Q99720 whole entry): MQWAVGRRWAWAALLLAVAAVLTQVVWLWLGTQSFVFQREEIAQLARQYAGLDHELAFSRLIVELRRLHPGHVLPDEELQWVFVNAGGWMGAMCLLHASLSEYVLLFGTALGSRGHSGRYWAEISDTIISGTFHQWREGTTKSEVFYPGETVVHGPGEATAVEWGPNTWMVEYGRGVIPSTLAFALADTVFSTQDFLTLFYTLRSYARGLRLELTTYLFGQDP

SERT = SERT (Homo sapiens, UniProt P31645); assay: MDS LeadProfilingScreen, SERT; type: binding
SERT, sequence (P31645 whole entry): as the sequence (P31645 whole entry) above

mice = assay: Mouse zero maze (mZM); type: in vivo; conditions: mZero maze, p.o.
Protocol: Mice were treated (peroral administration) for 7 days with either, vehicle, duloxetine (10 mg/kg), and compound I (0.1 mg/kg, 1 mg/kg, and 3 mg/kg) (n=8 in each group).
Compound (I) was tested in three widely used behavioural screens for predicting anxiolytic effects in the clinic: the mouse marble burying test (mMB), mouse zero maze (mZM) and mouse stress-induced hyperthermia test (mSIH).

NET = NET (Homo sapiens, UniProt P23975); assay: MDS LeadProfilingScreen, NET; type: binding
NET, sequence (P23975 whole entry): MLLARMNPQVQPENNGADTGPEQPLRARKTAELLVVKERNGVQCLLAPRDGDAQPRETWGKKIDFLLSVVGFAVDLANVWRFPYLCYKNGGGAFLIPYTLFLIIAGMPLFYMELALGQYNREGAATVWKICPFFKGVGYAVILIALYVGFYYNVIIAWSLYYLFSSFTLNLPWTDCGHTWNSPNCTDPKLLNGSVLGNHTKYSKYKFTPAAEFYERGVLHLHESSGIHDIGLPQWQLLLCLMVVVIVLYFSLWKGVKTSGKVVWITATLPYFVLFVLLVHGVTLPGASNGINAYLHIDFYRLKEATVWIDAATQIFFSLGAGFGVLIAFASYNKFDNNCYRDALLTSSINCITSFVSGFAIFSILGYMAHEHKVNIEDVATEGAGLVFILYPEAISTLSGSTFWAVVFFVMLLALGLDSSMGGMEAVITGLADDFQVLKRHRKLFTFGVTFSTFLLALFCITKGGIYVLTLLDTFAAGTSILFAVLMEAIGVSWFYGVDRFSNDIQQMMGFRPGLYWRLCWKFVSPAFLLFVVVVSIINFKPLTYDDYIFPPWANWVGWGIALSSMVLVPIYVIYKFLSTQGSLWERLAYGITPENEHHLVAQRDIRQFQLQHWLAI

[6] = test system: brain levels of serotonin (5-HT); assay: In vivo microdialysis, 5-HT; set-up: species or system rat
Protocol: The purpose of the present study was to examine, by in vivo microdialysis technique, the effects after administration of compound (I) on brain levels of serotonin, noradrenalin and dopamine within the ventral hippocampus (Hipp), prefrontal cortex (PFC), striatum (STR) and nucleus accumbens (N.Acc) of anaesthetized rats and mice. […] Compound (I) was tested following subcutaneous injections at dose levels between 0.25-30 mg/kg.

[7] = Hippocampus, 3 mg/kg s.c., 3 mg/kg
[8] = Pre-frontal cortex, 1 mg/kg s.c., 1 mg/kg
[9] = Pre-frontal cortex, 10 mg/kg s.c., 10 mg/kg
[10] = Pre-frontal cortex, WAY100365 0.1 mg/kg + compound (I) 0.25 mg/kg

Compound: O=c1ccc2ccc(O[C@@H]3C[C@H]4CC[C@@H](C3)N4)cc2o1 [Compound (I), exo-7-(8-aza-bicyclo[3.2.1]oct-3-yloxy)-chromen-2-one]
- MED (NMRI mice; mLA, 1, 3, 10 mg/kg p.o. −60 min + SCH23390 0.00375 mg/kg s.c. −60 min): 10 mg/kg
- MED (NMRI mice; mLA, p.o. 0 min): 10 mg/kg
- AUC(0-t) ([1]; Brain): 9350 ng·h/mL
- AUC(0-t) ([1]; Liver): 38500 ng·h/mL
- AUC(0-t) ([1]; Lung): 35700 ng·h/mL
- AUC(0-t) ([1]; Plasma): 2220 ng·h/mL
- half-life ([1]; Brain): 3 h
- half-life ([1]; Liver): 2.5 h
- half-life ([1]; Lung): 2.2 h
- half-life ([1]; Plasma): 1.1 h
- DA (AUC0-160 min) [2, 7]: 142±36%
- DA (AUC0-160 min) ([2]; N.Acc, 10 mg/kg s.c., 10 mg/kg): 192±42%
- DA (AUC0-160 min) ([2]; N.Acc, 30 mg/kg s.c., 30 mg/kg): 604±88%
- DA (AUC0-160 min) [2, 8]: 132±9%
- DA (AUC0-160 min) [2, 9]: 211±40%
- DA (AUC0-160 min) [2, 10]: 55 ± 2%
- DA (AUC0-160 min) ([2]; Striatum, 3 mg/kg s.c., 3 mg/kg): 137±21%
- DA (AUC0-160 min) ([2]; Striatum, 10 mg/kg s.c., 10 mg/kg): 134±43%
- Kinetic pattern of DA increase in microdialysis (nucleus accumbens) ([2]; rats, 30 mg/kg s.c., compared to bupropion 10 mg/kg s.c. and cocaine 25 mg/kg i.p.): slower kinetic pattern
- IC50 (5-HT transporter [3]): 1.8 nM
- Ki (5-HT transporter [3]): 2 nM
- Human transporter ratio (5-HT transporter [3]; 5-HT (reference = 1)): 1
- 5-HT RO % (5-HT transporter [4]; estimated at MED in mFST (NMRI mice), DOSE 1 mg/kg): 34%
- 5-HT RO % (5-HT transporter [4]; estimated at MED in mMotility, DOSE 10 mg/kg): 84%
- ED50 (5-HT transporter [4]; mouse, po): 1.9 mg/kg
- Average conc. of compound (I) at 5 min (max), total plasma ([5]; 1 mg/kg): 631 ng/mL
- Average conc. of compound (I) at 5 min (max), total plasma ([5]; 3 mg/kg): 2120 ng/mL
- Average conc. of compound (I) at 5 min (max), total plasma ([5]; 10 mg/kg): 6560 ng/mL
- Average conc. of compound (I) at 5 min (max), total plasma ([5]; 30 mg/kg): 15000 ng/mL
- inhibition at 10 µM (Sigma σ1): 59%
- Ki (SERT): 0.37 nM
- inhibition at 10 µM (SERT; SERT, Human, 10 μM): 103%
- MED (mice; acute, −60 min): >10 mg/kg
- MED (mice; 7 days OD): <0.3 mg/kg
- Ki (NET): 594 nM
- inhibition at 10 µM (NET; NET, Human, 10 μM): 92%
- 5-HT (AUC0-160 min) [6, 7]: 433±53%
- 5-HT (AUC0-160 min) ([6]; N.Acc, 10 mg/kg s.c.): 151 ± 17%
- 5-HT (AUC0-160 min) ([6]; Pre-frontal cortex, 0.25 mg/kg s.c., 0.25 mg/kg): 190±15%
- 5-HT (AUC0-160 min) [6, 8]: 252±48%
- 5-HT (AUC0-160 min) [6, 9]: 263±47%
- 5-HT (AUC0-160 min) [6, 10]: 253 ± 32%
- 5-HT (AUC0-160 min) ([6]; Striatum, 3 mg/kg s.c.): 138 ± 31%
- 5-HT (AUC0-160 min) ([6]; Striatum, 10 mg/kg s.c.): 170 ± 12%
